According to patent publication US11779576B2, “Method of treating C3 glomerulopathy” (CHEMOCENTRYX, INC., priority 2016, dated 2023):
Entries after “also recorded” stand apart in the source; their conditions may differ.

Assays:
[1] = test system: glomeruli of renal allograft of C3 glomerulonephritis patient; test: Renal allograft biopsies (histology, immunofluorescence, CD68 staining) pre-dose and at 2 and 7 months of compound 1 therapy; format: in vivo, human; conditions: for Endocapillary hypercellularity/total: pre-treatment 3/11; for CD68-positive cells/glomerulus: pre-treatment 11; for Immunoflourescence microscopy, IgM: pre-treatment trace; for glomerular inflammation: after treatment, PAS staining (FIG. 2)
Source text: Under the Special Needs program in the United Kingdom (which is similar to a compassionate use protocol in the US), a C3 glomerulonephritis patient received treatment with the orally administered complement inhibitor compound 1, following the protocol detailed below. The patient had refractory disease despite a kidney transplant and prior treatment with the broadly immunosuppressive drugs rituximab, cyclophosphamide, mycophenolate mofetil, tacrolimus, and steroids. Renal allograft biopsies were taken pre-dose, 2 and 7 months during therapy. […] Protocol of the Study Aim Efficacy Assessments Include: • 1. First morning urinary PCR; • 2. eGFR by Modification of Diet in Renal Disease (MDRD) formula based on serum creatinine; • 3. Plasma and urine pharmacodynamic markers, e.g., MCP-1, C3a, C5a, properdin, and sC5b-9; • 4. Glomerular inflammation (e.g., crescents, inflammatory cell infiltrate, endocapillary proliferation) and C3 deposition in a follow-up renal biopsy sample; Pharmacokinetic Assessments Renal biopsies will be analyzed by periodic acid—Schiff (PAS) staining, immunofluorescence staining for C3, C5b-9, and potentially other markers. Electron microscopy may also be performed.

[2] = test system: patient with progressive complement 3 glomerulonephritis (recurrent C3GN in a renal transplant); test: Study of compound 1 in a patient with progressive C3 glomerulonephritis: eGFR, proteinuria, clinical condition; format: in vivo, human
Source text: Under the Special Needs program in the United Kingdom (which is similar to a compassionate use protocol in the US), a C3 glomerulonephritis patient received treatment with the orally administered complement inhibitor compound 1, following the protocol detailed below. The patient had refractory disease despite a kidney transplant and prior treatment with the broadly immunosuppressive drugs rituximab, cyclophosphamide, mycophenolate mofetil, tacrolimus, and steroids. Renal allograft biopsies were taken pre-dose, 2 and 7 months during therapy. The primary efficacy objective is to evaluate the efficacy of compound 1 based on change from baseline in eGFR (MDRD, Estimated Glomerular Filtration Rate) and proteinuria. The patient will have biopsy proven recurrent […] prior to start of dosing, and be deemed eligible based on the inclusion and exclusion criteria. Screening procedures will include recording of demographics, medical history, medication history, physical examination and vital signs, serum chemistry, hematology, urinalysis (including UPCR measurement), viral screening (if not performed within prior 12 weeks), and estimated glomerular filtration rate (eGFR) assessment based on serum creatinine. The baseline eGFR needs to be at least 25 mL/min/1.73 m^2 for study eligibility. On Day 1, the patient will start compound 1 treatment. Patients will take compound 1 30 mg orally twice daily for an initial period of 84 days. The patient will visit the study center on Days 1, 8, 15, 29, 57, and 85. The compound 1 dose will be taken in the morning optimally within one hour after breakfast and in the evening optimally within one hour after dinner. If the patient's clinical condition stabilizes or improves, and there are no adverse events preventing further treatment, the patient may be treated for another 84-day treatment cycle. The 84-day cycles may be repeated for a total of up to 4 cycles under this protocol. For the 84-day cycles after the first cycle, the patient will visit the study center every 4 weeks. There will be 4-week follow-up period after the patient stops the compound 1 treatment. Efficacy Assessments Include: • 1. First morning urinary PCR; • 2. eGFR by Modification of Diet in Renal Disease (MDRD) formula based on serum creatinine; • 3. Plasma and urine pharmacodynamic markers, e.g., MCP-1, C3a, C5a, properdin, and sC5b-9; • 4. Glomerular inflammation (e.g., crescents, inflammatory cell infiltrate, endocapillary proliferation) and C3 deposition in a follow-up renal biopsy sample; Pharmacokinetic Assessments

`Cc1ccc(NC(=O)[C@H]2CCCN(C(=O)c3c(C)cccc3F)[C@H]2c2ccc(NC3CCCC3)cc2)cc1C(F)(F)F` [compound 1] was tested, and the Endocapillary hypercellularity/total ([1]; 2 months of therapy) was 0/36, the CD68-positive cells/glomerulus ([1]; 2 months of therapy) was 2-3 cells/glomerulus and the “Immunoflourescence microscopy, IgM” value ([1]; 2 months of therapy) was “neg”. For the same compound, the Endocapillary hypercellularity/total ([1]; 7 months of therapy) was 0/14, the CD68-positive cells/glomerulus ([1]; 7 months of therapy) was 1-2 cells/glomerulus and the “Immunoflourescence microscopy, IgM” value ([1]; 7 months of therapy) was “neg”. The glomerular inflammation [1] was “reduction”, the glomerular inflammation ([1]; listed as Compound 1) was “reduced” and the glomerular endocapillary proliferation ([1]; on-treatment kidney biopsy compared to pre-treatment biopsy) was “clearance”. The glomerular inflammatory macrophages ([1]; on-treatment/repeat biopsies compared to pre-treatment, CD68 staining (FIG. 2)) was “marked decrease; also recorded: reduction”, the glomerular endocapillary hypercellularity ([1]; repeat biopsies, PAS staining after treatment (FIG. 2)) was “resolution; also recorded: reduction” and the “patient's condition in response to treatment” value ([2]; C3 glomerulonephritis patient, refractory disease after kidney transplant, compound 1 30 mg orally twice daily) was “improved”. For the same compound, the eGFR decline ([2]; after 1 month of treatment (FIG. 1)) was “attenuated”, the eGFR ([2]; during compound 1 treatment) was “stabilized” and the eGFR decline ([2]; eGFR 83 mL/min/1.73 m^2 14 months prior, 46 mL/min/1.73 m^2 at start of treatment) was “attenuated or stopped”. The Proteinuria drop ([2]; with compound 1 treatment, 30 mg orally twice daily) was “approximately 80%”.
